# Measured values as given in patent US8436159B2, “Glyphosate resistant class I 5-endolpyruvylshikimate-3-phosphate synthase (EPSPS)” (Monsanto Technology LLC, priority 2003, dated 2013).
# Positions count from the first letter of the chain named.
# Assays:
# [1] = target: T1, maize (Zea mays) class I EPSPS variant TIPA (T102I, P106A), pMON42481, ZmTIPA SEQ ID NO:39 (Zea mays, UniProt O24566, P106A/T102I); assay: EPSPS steady-state kinetics, TIPA variant; format: biochemical
# T1 construct: pMON42481
# T1 sequence (O24566 1-444 T102I/P106A): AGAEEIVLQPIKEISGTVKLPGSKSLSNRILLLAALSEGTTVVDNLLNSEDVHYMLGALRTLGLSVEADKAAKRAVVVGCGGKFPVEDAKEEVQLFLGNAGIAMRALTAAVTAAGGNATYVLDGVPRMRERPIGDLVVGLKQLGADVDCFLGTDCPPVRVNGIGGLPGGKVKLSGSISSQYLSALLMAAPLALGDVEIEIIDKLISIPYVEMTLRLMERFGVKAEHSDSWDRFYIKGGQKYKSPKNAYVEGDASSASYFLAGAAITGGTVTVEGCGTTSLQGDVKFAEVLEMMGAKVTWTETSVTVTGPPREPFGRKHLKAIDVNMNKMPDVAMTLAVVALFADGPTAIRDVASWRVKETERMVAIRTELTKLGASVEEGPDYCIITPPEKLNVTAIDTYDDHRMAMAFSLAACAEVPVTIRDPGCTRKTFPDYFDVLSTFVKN
# Source text: (§1) The double variants of the present invention were made using pMON58452 (FIG. 5) as the template. This pMON58452 EPSPS gene template contains the maize EPSPS double variant T102I, P106T (TIPT) that was constructed by mutagenesis of pMON70467 with the mutagenesis primers mEmut-9-U and mEmut-10-L. The various mutagenesis primer sequences were designed and then were synthesized by Invitrogen Corp., Custom Primers and used in combination in a PCR to create the variant EPSPS coding sequences. The PCR was set up in a 50 μl reaction in the following manner: dH2O 38 μl; 2 mM dNTP 1 μL; 10× buffer 5 μL; pMON58452 1 μL (10 ng); primer-U 2 μL; primer-L 2 μL; pfu Turbo enzyme 1 μL. PCR was carried out on a MJ Research PTC-200 thermal cycler using the following program: Step 1—94° C. for 30 seconds; Step 2—94° C. for 30 seconds; Step 3—55° C. for 1 minute; Step 4—68° C. for 14 minute; Step 5—go to step 2, 16 times; Step 6—End. At the end of the PCR, 1 μl of the restriction enzyme DpnI was added to each 50 μl of PCR reaction and the mixture was incubated at 37° C. for 1 hour. […]
# [2] = target: T2, maize (Zea mays) class I EPSPS variant TIPI (T102I, P106I), pMON42486 (Zea mays, UniProt O24566, P106I/T102I); assay: EPSPS steady-state kinetics, TIPI variant; format: biochemical
# T2 construct: pMON42486
# T2 sequence (O24566 1-444 T102I/P106I): T1 sequence (O24566 1-444 T102I/P106A) with A106I
# Source text: as §1
# [3] = system: E. coli EPSPS, native; conditions: native enzyme; read-out: apparent Ki for glyphosate; cited from earlier work
compound,measurement,setting,value
"O=C(O)CNCP(=O)(O)O [glyphosate, N-phosphonomethylglycine]",Ki,[1],148 ± 18.3 µM
same,Ki,[2],2500 ± 900 µM
same,Ki,[3],0.5 µM
